The target in assay [1] is T1, CamA (Clostridioides difficile, UniProt Q183J3).
T1 sequence (Q183J3 1-577): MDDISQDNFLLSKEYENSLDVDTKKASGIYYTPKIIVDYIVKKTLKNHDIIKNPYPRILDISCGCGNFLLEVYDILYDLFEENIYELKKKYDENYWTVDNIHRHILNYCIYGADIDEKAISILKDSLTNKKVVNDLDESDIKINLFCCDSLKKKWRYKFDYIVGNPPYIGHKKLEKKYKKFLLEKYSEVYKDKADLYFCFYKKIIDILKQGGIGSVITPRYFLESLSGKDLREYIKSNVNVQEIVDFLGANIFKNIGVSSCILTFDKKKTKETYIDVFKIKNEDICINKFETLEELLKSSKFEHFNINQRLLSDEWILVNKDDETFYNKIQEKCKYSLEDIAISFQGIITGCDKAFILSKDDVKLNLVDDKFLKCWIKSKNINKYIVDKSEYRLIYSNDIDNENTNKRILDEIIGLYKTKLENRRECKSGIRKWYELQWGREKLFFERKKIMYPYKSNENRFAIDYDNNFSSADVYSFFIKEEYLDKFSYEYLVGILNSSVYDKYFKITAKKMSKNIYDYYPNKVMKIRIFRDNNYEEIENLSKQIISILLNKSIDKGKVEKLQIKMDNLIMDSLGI
The class given is biochemical.

In assay [2] the target is T1, CamA. Description: Isothermal titration calorimetry. Type of assay: binding. On the technique in general: Isothermal titration calorimetry measures the heat released or taken up as one component is titrated into another.
The target in the next assay is DOT1L (Homo sapiens, UniProt Q8TEK3). The experiment in a line: Selectivity assay, DOT1L. Type of assay: biochemical. The following applies: compound 10 μM, 3H-SAM 1 μM.
The next assay has as its target T2, G9a (Homo sapiens, UniProt Q96KQ7).
T2 sequence (Q96KQ7 1-1210): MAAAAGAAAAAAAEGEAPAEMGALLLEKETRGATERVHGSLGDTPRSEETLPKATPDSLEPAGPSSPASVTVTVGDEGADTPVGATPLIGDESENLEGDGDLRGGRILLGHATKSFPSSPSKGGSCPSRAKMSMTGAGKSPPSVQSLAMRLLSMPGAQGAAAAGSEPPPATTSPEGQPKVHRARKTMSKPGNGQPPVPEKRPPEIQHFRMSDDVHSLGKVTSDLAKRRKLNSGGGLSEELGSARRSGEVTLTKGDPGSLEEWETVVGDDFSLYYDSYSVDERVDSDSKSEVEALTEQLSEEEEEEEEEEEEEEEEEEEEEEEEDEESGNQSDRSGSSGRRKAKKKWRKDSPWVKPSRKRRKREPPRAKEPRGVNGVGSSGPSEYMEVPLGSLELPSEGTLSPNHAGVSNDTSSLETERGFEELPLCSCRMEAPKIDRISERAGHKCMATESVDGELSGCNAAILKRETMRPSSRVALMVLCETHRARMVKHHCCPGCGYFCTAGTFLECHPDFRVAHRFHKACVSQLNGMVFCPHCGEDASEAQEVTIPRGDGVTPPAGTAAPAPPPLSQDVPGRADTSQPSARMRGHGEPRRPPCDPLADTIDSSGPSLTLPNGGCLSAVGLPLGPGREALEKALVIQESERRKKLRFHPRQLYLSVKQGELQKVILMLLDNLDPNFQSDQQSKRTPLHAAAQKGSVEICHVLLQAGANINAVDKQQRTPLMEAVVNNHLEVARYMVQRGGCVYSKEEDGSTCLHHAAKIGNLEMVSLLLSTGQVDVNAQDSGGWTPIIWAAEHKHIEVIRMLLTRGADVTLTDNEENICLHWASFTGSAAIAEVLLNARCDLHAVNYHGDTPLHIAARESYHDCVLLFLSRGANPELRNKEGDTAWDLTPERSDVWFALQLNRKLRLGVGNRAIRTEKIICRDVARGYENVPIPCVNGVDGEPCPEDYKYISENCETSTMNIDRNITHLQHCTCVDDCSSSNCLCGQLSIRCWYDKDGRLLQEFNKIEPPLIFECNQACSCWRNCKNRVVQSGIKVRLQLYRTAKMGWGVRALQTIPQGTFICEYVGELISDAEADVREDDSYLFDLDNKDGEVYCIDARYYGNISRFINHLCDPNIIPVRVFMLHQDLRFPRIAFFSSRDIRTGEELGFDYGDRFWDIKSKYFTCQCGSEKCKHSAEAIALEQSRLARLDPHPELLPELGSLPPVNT
The experiment in a line: Selectivity assay, G9a. The class given is biochemical. Conditions: compound 10 μM, 3H-SAM 1 μM.

In another assay the target is PRMT1 (Homo sapiens, UniProt Q99873). The experiment in a line: Selectivity assay, PRMT1. The class given is biochemical. Conditions: compound 10 μM, 3H-SAM 1 μM.
Another assay addresses PCIF1 (Homo sapiens, UniProt Q9H4Z3). The class given is biochemical.
In another assay the target is CcrM (Caulobacter vibrioides, UniProt P0CAW2). The class given is biochemical, Caulobacter crescentus.
The next assay deals with T3, Dam (Escherichia coli, UniProt P0AEE8).
T3 sequence (P0AEE8 1-278): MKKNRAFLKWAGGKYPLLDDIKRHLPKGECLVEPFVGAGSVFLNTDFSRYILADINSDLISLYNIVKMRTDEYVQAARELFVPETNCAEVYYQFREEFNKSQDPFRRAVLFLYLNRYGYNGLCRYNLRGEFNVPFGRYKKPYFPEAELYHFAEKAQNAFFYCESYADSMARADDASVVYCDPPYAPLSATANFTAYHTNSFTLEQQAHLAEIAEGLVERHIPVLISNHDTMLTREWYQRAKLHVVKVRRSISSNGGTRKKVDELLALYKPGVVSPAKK
The class given is biochemical.

Another assay has as its target Dnmt3a-Dnmt3L (Mus musculus, UniProt O88508). Type of assay: biochemical.
Assay [3] deals with T4, A1 adenosine receptor (A1AR) (Homo sapiens, UniProt P30542).
T4 sequence (P30542 1-326): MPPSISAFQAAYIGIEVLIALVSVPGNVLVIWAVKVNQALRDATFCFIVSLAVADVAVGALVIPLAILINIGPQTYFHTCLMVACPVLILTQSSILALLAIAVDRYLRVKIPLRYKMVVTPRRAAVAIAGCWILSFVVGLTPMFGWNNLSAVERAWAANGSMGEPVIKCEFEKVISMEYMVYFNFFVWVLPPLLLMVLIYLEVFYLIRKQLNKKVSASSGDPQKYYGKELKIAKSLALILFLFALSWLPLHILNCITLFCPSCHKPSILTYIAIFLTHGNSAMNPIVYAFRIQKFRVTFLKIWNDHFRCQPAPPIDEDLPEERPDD
Description: A1AR agonist radioligand binding assay. Conditions: compound 10 μM, [3H]CCPA 1 nM, transfected CHO cell membranes.

The next assay concerns the target MettL3-MettL14 (Homo sapiens, UniProt Q86U44). Description: Selectivity assay, MettL3-MettL14. Type of assay: biochemical. The following applies: [I] = 10 μM, [SAM] = 20 μM, 5 mM NaCl, or CamA conditions.

Results on 13 molecules are retold here after paper PMC9841527 (Journal of Medicinal Chemistry, 2022).

Where only a bound is given, the exact number is not on record here.

PCIF1, sequence (Q9H4Z3 whole entry): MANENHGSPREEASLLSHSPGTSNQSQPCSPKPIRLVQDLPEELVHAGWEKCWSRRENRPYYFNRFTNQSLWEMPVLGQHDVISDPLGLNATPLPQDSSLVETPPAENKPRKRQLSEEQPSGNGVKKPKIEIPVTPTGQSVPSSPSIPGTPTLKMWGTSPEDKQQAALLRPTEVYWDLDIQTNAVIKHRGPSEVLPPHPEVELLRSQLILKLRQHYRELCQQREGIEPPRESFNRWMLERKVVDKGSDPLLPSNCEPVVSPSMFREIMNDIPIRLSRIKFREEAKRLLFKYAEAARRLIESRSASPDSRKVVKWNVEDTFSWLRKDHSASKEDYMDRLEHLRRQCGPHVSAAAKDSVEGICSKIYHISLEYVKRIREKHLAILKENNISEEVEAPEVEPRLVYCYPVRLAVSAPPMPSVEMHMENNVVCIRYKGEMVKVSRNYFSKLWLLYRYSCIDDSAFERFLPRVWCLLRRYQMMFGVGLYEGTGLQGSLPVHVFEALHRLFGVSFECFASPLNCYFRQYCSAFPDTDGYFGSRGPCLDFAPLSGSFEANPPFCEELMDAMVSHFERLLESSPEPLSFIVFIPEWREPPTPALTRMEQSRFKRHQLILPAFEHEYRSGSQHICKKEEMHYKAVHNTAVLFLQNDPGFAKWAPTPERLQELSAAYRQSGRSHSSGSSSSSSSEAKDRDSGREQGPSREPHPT
DOT1L, sequence (Q8TEK3 whole entry): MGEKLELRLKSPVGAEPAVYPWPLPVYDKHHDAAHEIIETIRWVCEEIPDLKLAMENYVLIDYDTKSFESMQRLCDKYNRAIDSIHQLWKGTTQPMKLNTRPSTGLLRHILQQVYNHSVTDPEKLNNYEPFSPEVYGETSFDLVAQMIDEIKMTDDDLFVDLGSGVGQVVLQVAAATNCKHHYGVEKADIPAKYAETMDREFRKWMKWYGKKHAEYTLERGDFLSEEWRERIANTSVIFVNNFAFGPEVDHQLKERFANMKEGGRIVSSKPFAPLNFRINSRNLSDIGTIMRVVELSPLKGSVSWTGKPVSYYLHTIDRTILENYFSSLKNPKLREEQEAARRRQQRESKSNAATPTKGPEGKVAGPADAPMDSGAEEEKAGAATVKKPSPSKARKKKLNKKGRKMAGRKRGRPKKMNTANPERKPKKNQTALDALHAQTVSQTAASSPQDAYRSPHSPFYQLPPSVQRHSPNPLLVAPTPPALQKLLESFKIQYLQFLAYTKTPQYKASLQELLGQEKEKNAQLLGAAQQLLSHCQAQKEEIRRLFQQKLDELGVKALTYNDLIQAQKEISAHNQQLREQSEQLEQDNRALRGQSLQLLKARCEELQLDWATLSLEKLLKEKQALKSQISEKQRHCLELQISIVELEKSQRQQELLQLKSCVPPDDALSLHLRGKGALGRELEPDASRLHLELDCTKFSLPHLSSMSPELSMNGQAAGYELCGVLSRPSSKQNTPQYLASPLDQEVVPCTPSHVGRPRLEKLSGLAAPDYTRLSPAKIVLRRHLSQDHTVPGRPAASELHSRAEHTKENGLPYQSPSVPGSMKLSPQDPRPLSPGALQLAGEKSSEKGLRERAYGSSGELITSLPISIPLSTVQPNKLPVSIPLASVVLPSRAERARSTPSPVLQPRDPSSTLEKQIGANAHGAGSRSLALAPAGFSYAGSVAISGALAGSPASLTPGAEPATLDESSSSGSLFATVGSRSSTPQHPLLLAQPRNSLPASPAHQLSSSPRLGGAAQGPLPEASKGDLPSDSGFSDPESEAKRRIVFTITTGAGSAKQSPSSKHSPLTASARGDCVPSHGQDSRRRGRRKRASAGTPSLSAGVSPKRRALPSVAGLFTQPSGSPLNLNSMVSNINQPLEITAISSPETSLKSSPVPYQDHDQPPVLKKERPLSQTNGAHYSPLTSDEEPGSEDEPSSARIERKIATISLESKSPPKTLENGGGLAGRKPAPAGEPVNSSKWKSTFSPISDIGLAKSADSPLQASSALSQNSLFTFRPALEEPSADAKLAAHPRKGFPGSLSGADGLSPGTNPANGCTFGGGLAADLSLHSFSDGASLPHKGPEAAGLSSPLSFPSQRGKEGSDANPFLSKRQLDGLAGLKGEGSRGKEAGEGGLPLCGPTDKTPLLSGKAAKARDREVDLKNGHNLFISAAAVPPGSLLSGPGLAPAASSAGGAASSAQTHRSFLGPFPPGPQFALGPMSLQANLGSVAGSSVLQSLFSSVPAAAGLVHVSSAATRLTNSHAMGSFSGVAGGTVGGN
MettL3-MettL14, sequence (Q86U44 whole entry): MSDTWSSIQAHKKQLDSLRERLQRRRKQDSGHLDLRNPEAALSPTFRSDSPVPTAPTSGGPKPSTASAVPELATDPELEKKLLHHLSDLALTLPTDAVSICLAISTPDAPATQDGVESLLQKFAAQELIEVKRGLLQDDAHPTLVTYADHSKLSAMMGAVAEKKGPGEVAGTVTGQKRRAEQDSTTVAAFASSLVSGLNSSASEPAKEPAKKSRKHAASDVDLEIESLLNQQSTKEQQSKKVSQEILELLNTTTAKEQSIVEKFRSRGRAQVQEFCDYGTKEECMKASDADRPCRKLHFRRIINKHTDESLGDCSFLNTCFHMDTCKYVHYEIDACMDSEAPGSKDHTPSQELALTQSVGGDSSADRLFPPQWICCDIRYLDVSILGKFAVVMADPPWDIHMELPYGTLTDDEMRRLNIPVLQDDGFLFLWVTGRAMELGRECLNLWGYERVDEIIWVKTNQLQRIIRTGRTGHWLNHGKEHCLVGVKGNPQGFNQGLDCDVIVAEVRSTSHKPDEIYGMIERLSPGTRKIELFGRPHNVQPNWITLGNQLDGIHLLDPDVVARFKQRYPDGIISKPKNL
MettL3-MettL14, sequence (Q9HCE5 whole entry partner): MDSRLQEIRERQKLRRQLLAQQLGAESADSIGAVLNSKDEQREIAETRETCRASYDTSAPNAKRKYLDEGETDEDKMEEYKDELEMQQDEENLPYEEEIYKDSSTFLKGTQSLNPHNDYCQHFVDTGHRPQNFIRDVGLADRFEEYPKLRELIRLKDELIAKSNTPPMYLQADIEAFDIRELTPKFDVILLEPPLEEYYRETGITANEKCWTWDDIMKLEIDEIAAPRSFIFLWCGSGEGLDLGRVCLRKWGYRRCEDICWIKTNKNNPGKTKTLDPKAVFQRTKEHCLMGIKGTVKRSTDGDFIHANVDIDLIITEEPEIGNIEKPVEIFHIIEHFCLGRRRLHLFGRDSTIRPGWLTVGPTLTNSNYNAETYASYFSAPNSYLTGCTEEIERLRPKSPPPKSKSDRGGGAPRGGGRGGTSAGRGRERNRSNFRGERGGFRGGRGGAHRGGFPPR
PRMT1, sequence (Q99873 whole entry): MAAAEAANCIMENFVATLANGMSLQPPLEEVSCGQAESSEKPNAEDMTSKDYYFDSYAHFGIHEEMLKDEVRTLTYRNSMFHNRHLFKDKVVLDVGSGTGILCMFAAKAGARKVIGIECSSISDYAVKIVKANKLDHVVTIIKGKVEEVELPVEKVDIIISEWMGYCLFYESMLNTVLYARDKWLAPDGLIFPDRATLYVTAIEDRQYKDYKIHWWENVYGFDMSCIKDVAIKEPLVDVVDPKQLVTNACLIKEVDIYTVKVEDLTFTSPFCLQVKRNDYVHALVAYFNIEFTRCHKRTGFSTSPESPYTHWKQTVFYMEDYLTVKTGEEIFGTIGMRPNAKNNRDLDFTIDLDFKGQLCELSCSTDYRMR
CcrM, sequence (P0CAW2 whole entry): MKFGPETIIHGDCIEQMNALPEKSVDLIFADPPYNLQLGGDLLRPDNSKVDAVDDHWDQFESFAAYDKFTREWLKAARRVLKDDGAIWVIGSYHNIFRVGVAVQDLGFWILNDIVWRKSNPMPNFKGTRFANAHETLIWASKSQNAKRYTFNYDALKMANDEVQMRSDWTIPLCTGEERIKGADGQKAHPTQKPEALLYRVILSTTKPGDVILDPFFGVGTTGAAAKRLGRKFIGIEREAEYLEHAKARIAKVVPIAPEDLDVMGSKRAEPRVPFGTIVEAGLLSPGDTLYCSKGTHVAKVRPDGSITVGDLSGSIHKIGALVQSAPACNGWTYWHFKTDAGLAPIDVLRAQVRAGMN

As to `OC[C@H]1O[C@@H](n2cnc3c(NCCCc4ccccc4)ncnc32)[C@H](O)[C@@H]1O` [Compound 14, (2R,3S,4R,5R)-2-(Hydroxymethyl)-5-(6-((3-phenylpropyl)amino)-9H-purin-9-yl)tetrahydrofuran-3,4-diol], the “lower IC50 value, fold” value at CamA [1] was around 21 ×. Besides, the “lower KD value, fold” value at CamA [2] (compared to compound 1) is around 26 ×.
With `Nc1ncnc2c1ncn2[C@@H]1O[C@H](CSCC[C@H](N)C(=O)O)[C@@H](O)[C@H]1O` [SAH, S-adenosyl-L-homocysteine, reference compound], the “inhibition of DOT1L” value against DOT1L was “exhibited measurable inhibition”. Besides, the “inhibition of G9a” value on G9a is “exhibited measurable inhibition”. Also, at PRMT1, the “inhibition of PRMT1” value is listed as “exhibited measurable inhibition”.
`OC[C@H]1O[C@@H](n2cnc3c(NCCCC4CCNCC4)ncnc32)[C@H](O)[C@@H]1O` [Compound 42, (2R,3S,4R,5R)-2-(Hydroxymethyl)-5-(6-((3-(piperidin-4-yl)propyl)amino)-9H-purin-9-yl)tetrahydrofuran-3,4-diol]: the “lower potency in inhibiting CamA, fold” value on CamA [1] was around 10 fold.
For `Nc1ncnc2c1ncn2[C@@H]1O[C@H](C[C@@H](N)CC[C@H](N)C(=O)O)[C@@H](O)[C@H]1O` [sinefungin, reference compound], at PCIF1, the “inhibition of PCIF1” value is “showed measurable inhibition”. Moreover, at CcrM, the “inhibition of CcrM” value is reported as “showed measurable inhibition”. For the same molecule, the “inhibition of Dam” value on Dam is listed as “showed measurable inhibition”. For the same molecule, the “effect on CamA activity” value at CamA [1] was “inhibiting CamA”. Also, the “inhibition of Dnmt3a-Dnmt3L” value against Dnmt3a-Dnmt3L was “showed measurable inhibition”.
As for `Nc1ccc(CCCNc2ncnc3c2ncn3[C@@H]2O[C@H](CO)[C@@H](O)[C@H]2O)cc1` [Compound 15, (2R,3R,4S,5R)-2-(6-((3-(4-Aminophenyl)propyl)amino)-9H-purin-9-yl)-5-(hydroxymethyl)tetrahydrofuran-3,4-diol], the “enhanced binding, fold” value at CamA [2] (compared to 2 and 9) is listed as 9–12 ×.
On to `OC[C@H]1O[C@@H](n2cnc3c(NCc4ccc(O)cc4)ncnc32)[C@H](O)[C@@H]1O` [Compound 3], for which the “improved IC50, fold” value on CamA [1] is given as around 2 ×. Besides, at CamA [2] (compared to compound 2), the “tighter binding in KD, fold” value is recorded as 2.6 ×.
Take `OC[C@H]1O[C@@H](n2cnc3c(NC4CCCC4)ncnc32)[C@H](O)[C@@H]1O` [N^6-cyclopentyladenosine, reference compound]: the “inhibition of control radioligand specific binding, A1AR” value in [3] was “completely abolished radioligand binding”.
On to `CC(C)(C)OC(=O)NCCC1CCN(c2ncnc3c2ncn3[C@@H]2O[C@H](CO)[C@@H](O)[C@H]2O)CC1` [Compound 40, tert-Butyl-(2-(1-(9-((2R,3R,4S,5R)-3,4-dihydroxy-5-(hydroxymethyl)tetrahydrofuran-2-yl)-9H-purin-6-yl)piperidin-4-yl)ethyl)carbamate], for which, on CamA [1], the CamA inhibition result is “loss of inhibition” and the “relative inhibition of CamA activity” value is on record as “loss of inhibition”.
For the molecule `OC[C@H]1O[C@@H](n2cnc3c(NCCCCCCc4ccccc4)ncnc32)[C@H](O)[C@@H]1O` [Compound 21, (2R,3S,4R,5R)-2-(Hydroxymethyl)-5-(6-((6-phenylhexyl)amino)-9H-purin-9-yl)tetrahydrofuran-3,4-diol], the “relative inhibition of CamA activity” value at CamA [1] is “decreased the inhibition potency”.
For `CC(C)N(CCCNC(=O)Nc1ccc(C(C)(C)C)cc1)C[C@H]1O[C@@H](n2cc(Br)c3c(N)ncnc32)[C@H](O)[C@@H]1O` [SGC0946, reference compound], at CamA [1], the “inhibition of CamA activity” value is on record as “inhibits CamA activity completely” and the “stronger inhibition, fold in IC50” value was around 9 ×. Also, the “improved binding, fold in KD” value on CamA [2] (vs EPZ004777) is around 3 ×.
On to “5′-methylthioadenosine [MTA, reference compound]”, for which the “enhanced binding, fold” value on CamA [2] (compared to sinefungin) is listed as around 2 ×. The “stronger binding, fold” value at CamA [2] (than adenosine) is above 7 ×.
As to `CC(C)(C)OC(=O)N1CCC2(CCN(c3ncnc4c3ncn4[C@@H]3O[C@H](CO)[C@@H](O)[C@H]3O)CC2)C1` [Compound 41, tert-Butyl-8-(9-((2R,3R,4S,5R)-3,4-dihydroxy-5-(hydroxymethyl)tetrahydrofuran-2-yl)-9H-purin-6-yl)-2,8-diazaspiro[4.5]decane-2-carboxylate], at CamA [1], the CamA inhibition entry was “loss of inhibition” and the “relative inhibition of CamA activity” value was “loss of inhibition”.
Take `O=C(NCc1cn2cc(CNCC3CCCCC3)ccc2n1)c1cc(=O)n2ccccc2n1` [STM2457, reference compound]: on CamA [1], the “effect on CamA activity” value is “had no effect on CamA activity”. Moreover, at MettL3-MettL14, the “inhibition of MettL3-MettL14” value was “inhibited”.
